For assay [1], the system named is DLD1 NRF2-GOF. The note with it: 72 h; CellTiter-Glo viability. Put shortly: (§1)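 Isogenic DLD1 colorectal cancer cells, either NRF2 wild-type or CRISPR gain-of-function, were grown in DMEM with 10% FBS. They were exposed in 384-well plates to library compounds at 5 concentrations spanning a 10,000-fold range. After 72 h, viability was read by CellTiter-Glo on a Pherastar FS reader and normalised to vehicle wells and 100-μM positive-control wells. EC50 and drug sensitivity score (a normalised area under the curve) came from four-parameter logistic dose-response fits.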
(In general: Cellular ATP, detected with luciferase, serves as a proxy for viable cell number.)

Assay [2] concerns DLD1 NRF2-WT. The conditions noted are these: 72 h; CellTiter-Glo viability. The gist of the method: as §1
For assay [3], the system named is DLD1 NRF2-GOF. Nature of the assay: TC50 cytotoxicity; higher = less toxic. The note with it: 72 h; CellTox Green cytotoxicity. The gist of the method:
(§2)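 Isogenic DLD1 colorectal cancer cells differing in NRF2 status, one line edited by CRISPR, were cultured in DMEM with 10% FBS and treated in 384-well plates with library compounds at 5 concentrations spanning a 10,000-fold range. Plates were read after 72 h with CellTox Green on a Pherastar FS reader, and signals were normalised to vehicle wells and 100-μM positive-control wells. Cytotoxicity was summarised as TC50 and as a drug sensitivity score, a normalised area under the curve, both from logistic dose-response fits.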

The subject of assay [4] is DLD1 NRF2-WT. Nature of the assay: TC50 cytotoxicity; higher = less toxic. The note with it: 72 h; CellTox Green cytotoxicity. Put shortly: as §2
Assay [5] has as its system DLD1 NRF2-GOF. Kind of assay: drug sensitivity score (DSS) cytotoxicity (DSS score); higher = more toxic; extreme values may be limits of the assay. The note with it: 72 h; CellTox Green cytotoxicity. The gist of the method:
as §2

Assay [6] deals with DLD1 NRF2-WT. Described as above. The note with it: 72 h; CellTox Green cytotoxicity. The gist of the method:
as §2

The test system of assay [7] is DLD1 NRF2-GOF. Nature of the assay: drug sensitivity score (DSS) viability (DSS score); higher = more sensitive; extreme values may be limits of the assay. The conditions noted are these: 72 h; CellTiter-Glo viability. The gist of the method:
as §1

For assay [8], the system named is DLD1 NRF2-WT. The assay is described as above. The conditions noted are these: 72 h; CellTiter-Glo viability. Put shortly:
as §1

The text below walks through data of the supplement of paper PMC7600603.

The structures appear in SMILES notation.

As to `CC(C)[C@H]1C(=O)N[C@@H](CCCNC(=N)N)C(=O)NCC(=O)N[C@@H](CC(=O)O)C(=O)N[C@H](Cc2ccccc2)C(=O)N1C` [Cilengitide], the EC50 viability in the assay on DLD1 NRF2-GOF [1] is 0.315 µM; in the assay with DLD1 NRF2-WT [2] it was over 10 µM. Further, the TC50 cytotoxicity in the assay with DLD1 NRF2-GOF [3] and in the assay on DLD1 NRF2-WT [4] was over 10 µM in each case. Also, the drug sensitivity score in the assay with DLD1 NRF2-GOF [5] is 0; in the assay with DLD1 NRF2-WT [6], 0; in the assay with DLD1 NRF2-GOF [7], 3.9; with DLD1 NRF2-WT [8] it was 0.
Regarding `C=CC(=O)Nc1cc(Nc2nccc(-c3cn(C)c4ccccc34)n2)c(OC)cc1N(C)CCN(C)C` [Osimertinib], the EC50 viability with DLD1 NRF2-GOF [1] was found to be 0.402 µM; in the assay with DLD1 NRF2-WT [2], 0.424 µM. Moreover, the TC50 cytotoxicity with DLD1 NRF2-GOF [3] and with DLD1 NRF2-WT [4] was over 2.5 µM in each case. Besides, the drug sensitivity score amounted to 0 in the assay with DLD1 NRF2-GOF [5], 0.7 in the assay on DLD1 NRF2-WT [6], 4.7 with DLD1 NRF2-GOF [7] and 6.6 in the assay on DLD1 NRF2-WT [8].
Turning to `Cc1cn(-c2cc(NC(=O)c3ccc(C)c(Nc4nccc(-c5cccnc5)n4)c3)cc(C(F)(F)F)c2)cn1` [Nilotinib], the figures for the EC50 viability in the assay on DLD1 NRF2-GOF [1] and in the assay on DLD1 NRF2-WT [2] were 0.983 µM and over 10 µM, respectively. For the same compound, the TC50 cytotoxicity in the assay on DLD1 NRF2-GOF [3] and in the assay on DLD1 NRF2-WT [4] was over 10 µM in each case. The drug sensitivity score in the assay on DLD1 NRF2-GOF [5] was determined as 0; with DLD1 NRF2-WT [6] it was 0; in the assay with DLD1 NRF2-GOF [7] it was 4; in the assay on DLD1 NRF2-WT [8], 2.5.
In the case of `CC1(C)OCCn2c1nc1c(N3CCOCC3)nc(-c3cnc(N)nc3)nc12` [GDC-0084], the EC50 viability in the assay on DLD1 NRF2-GOF [1] amounted to 1.34 µM; in the assay on DLD1 NRF2-WT [2] it was 0.725 µM. Moreover, the TC50 cytotoxicity in the assay on DLD1 NRF2-GOF [3] was over 10 µM; in the assay on DLD1 NRF2-WT [4], 3.65 µM. Moreover, the drug sensitivity score came to 0.3 with DLD1 NRF2-GOF [5], 1.1 in the assay on DLD1 NRF2-WT [6], 8.4 in the assay on DLD1 NRF2-GOF [7] and 10.9 with DLD1 NRF2-WT [8].
On to `O=C1CCc2c(Oc3ccc4c(c3)[C@@H]3[C@H](O4)[C@H]3c3nc4cc(C(F)(F)F)ccc4[nH]3)ccnc2N1` [BGB-283], for which the EC50 viability in the assay with DLD1 NRF2-GOF [1] stood at 4.13 µM; with DLD1 NRF2-WT [2], 1.62 µM. In addition, the TC50 cytotoxicity in the assay with DLD1 NRF2-GOF [3] and in the assay on DLD1 NRF2-WT [4] was over 10 µM in each case. Moreover, the drug sensitivity score with DLD1 NRF2-GOF [5] came to 0; with DLD1 NRF2-WT [6], 0; in the assay with DLD1 NRF2-GOF [7], 1.5; in the assay with DLD1 NRF2-WT [8], 5.
Consider `NC(=O)NO` [Hydroxyurea], for which the figures for the EC50 viability with DLD1 NRF2-GOF [1] and in the assay with DLD1 NRF2-WT [2] were 157 µM and 364 µM, respectively. Besides, the TC50 cytotoxicity in the assay on DLD1 NRF2-GOF [3] and in the assay on DLD1 NRF2-WT [4] was over 1000 µM each time. The drug sensitivity score was 0 with DLD1 NRF2-GOF [5], 0 with DLD1 NRF2-WT [6], 5.8 with DLD1 NRF2-GOF [7] and 1.7 in the assay on DLD1 NRF2-WT [8].
With `C[C@H]1O[C@@H](O[C@H]2[C@@H](O)C[C@H](O[C@H]3[C@@H](O)C[C@H](O[C@H]4CC[C@@]5(C)[C@H](CC[C@@H]6[C@@H]5C[C@@H](O)[C@]5(C)[C@@H](C7=CC(=O)OC7)CC[C@]65O)C4)O[C@@H]3C)O[C@@H]2C)C[C@H](O)[C@@H]1O` [Digoxin], the EC50 viability was determined as 0.0245 µM in the assay on DLD1 NRF2-GOF [1] and 0.0473 µM with DLD1 NRF2-WT [2]. In addition, the TC50 cytotoxicity in the assay with DLD1 NRF2-GOF [3] was found to be 0.217 µM; with DLD1 NRF2-WT [4], 0.327 µM. For the same compound, the drug sensitivity score turned out to be 4.6 in the assay with DLD1 NRF2-GOF [5], 4.3 in the assay with DLD1 NRF2-WT [6], 18.8 with DLD1 NRF2-GOF [7] and 15.8 in the assay on DLD1 NRF2-WT [8].
Turning to `CCN(CCO)CCCOc1ccc2c(Nc3cc(CC(=O)Nc4cccc(F)c4)[nH]n3)ncnc2c1` [AZD1152-HQPA], the figures for the EC50 viability in the assay on DLD1 NRF2-GOF [1] and in the assay with DLD1 NRF2-WT [2] were 0.0658 µM and 0.0355 µM, respectively. The figures for the TC50 cytotoxicity with DLD1 NRF2-GOF [3] and in the assay with DLD1 NRF2-WT [4] were 0.0568 µM and 0.0534 µM, respectively. The drug sensitivity score was found to be 7.7 in the assay on DLD1 NRF2-GOF [5], 5.5 with DLD1 NRF2-WT [6], 6.7 in the assay on DLD1 NRF2-GOF [7] and 6.6 in the assay on DLD1 NRF2-WT [8].
On to `O=C(O)c1ccc2c(c1)nc(Nc1cccc(Cl)c1)c1ccncc12` [Silmitasertib], for which the EC50 viability in the assay with DLD1 NRF2-GOF [1] is 1.52 µM; in the assay with DLD1 NRF2-WT [2], 3.6 µM. Further, the TC50 cytotoxicity in the assay with DLD1 NRF2-GOF [3] and in the assay with DLD1 NRF2-WT [4] was over 10 µM each time. Besides, the drug sensitivity score was 0 in the assay with DLD1 NRF2-GOF [5], 0.3 with DLD1 NRF2-WT [6], 2.8 in the assay with DLD1 NRF2-GOF [7] and 2.1 with DLD1 NRF2-WT [8].
Take `CCOc1ccccc1-n1c(C(C)N2CCN(C(=O)COc3ccc(Cl)cc3)CC2)nc2ccccc2c1=O` (stereo not given) [Erastin]: the EC50 viability in the assay with DLD1 NRF2-GOF [1] and in the assay with DLD1 NRF2-WT [2] was over 10 µM each time. Besides, the TC50 cytotoxicity in the assay with DLD1 NRF2-GOF [3] and in the assay on DLD1 NRF2-WT [4] was over 10 µM throughout. In addition, the drug sensitivity score in the assay on DLD1 NRF2-GOF [5], in the assay with DLD1 NRF2-WT [6], in the assay on DLD1 NRF2-GOF [7] and with DLD1 NRF2-WT [8] was 0 throughout.
